Experimental data from patent publication US20260234112A1, “COMPOUNDS, COMPOSITIONS, AND METHODS OF USE THEREOF” (Type6 Therapeutics, Inc., priority 2023, published 2026).

Molecular target: T1, Cdk2(2-298) (Homo sapiens, UniProt P24941)
T1 construct: Biotinylated N-terminal avi-tagged Cdk2(2-298) or Cdk1(1-297) was immobilized
Test: Surface Plasmon Resonance (SPR) compound interaction, Biacore 8K
Assay type: binding
Settings: single-cycle kinetics (SCK, "S"), dissociation 1800 sec, read-out: Activity rating (KD)
Protocol: Compound interaction was profiled using a Biacore 8K instrument (Cytiva). Biotinylated N-terminal avi-tagged Cdk2(2-298) or Cdk1(1-297) was immobilized on a series S sensor Chip SA at a capture level between 2500 RU and 3000 RU (Cdk2) or 7000 RU (Cdk1) in buffer (25 mM HEPES, 150 mM NaCl, 0.05% Tween20, pH 7.5). A compound dilution plate (8 concentrations, 3-fold dilution) in DMSO was prepared (100× assay concentration). From this plate, compound DMSO stock solution was transferred into buffer, yielding a final DMSO concentration of 1% in assay. The remaining buffer was supplemented with 1% DMSO. Compounds were injected in a series of increasing concentrations in multi-cycle kinetics (MCK, “M”) or single-cycle kinetics (SCK, “S”) mode at a flow rate of 30 μl/min for 120 sec and dissociation was profiled for 180 sec (MCK) or 1800 sec (SCK). Data were analysed using Biacore Insight Evaluation Software (Cytiva).

Structure (SMILES) | Kd [nM]
C=Cc1ccccc1S(=O)(=O)Nc1ccc(Oc2ccncc2-c2ccnc(N[C@H]3CC[C@H](N)CC3)n2)c(F)c1 [Compound 33, N-[4-[[3-[2-(1r,4r)[(4-Aminocyclohexyl)amino]pyrimidin-4-yl]-4-pyridyl]oxy]-3-fluoro-phenyl]-2-ethenylbenzenesulfonamide] | ≤ 10
O=S(=O)(Nc1ccc(Oc2ccncc2-c2ccnc(N[C@H]3CCCNC3)n2)c(F)c1)c1ccccc1Cl [Compound 34, N-[3-Fluoro-4-[[3-[2-[[(3S)-3-piperidyl]amino]pyrimidin-4-yl]-4-pyridyl]oxy]phenyl] 2-chlorobenzenesulfonamide] | ≤ 10
Cc1ccc(C#N)cc1S(=O)(=O)Nc1ccc(Oc2ccncc2-c2ccnc(N[C@H]3CC[C@H](N)CC3)n2)c(F)c1 [Compound 35, N-(4-((3-(2-(((1r,4r)-4-aminocyclohexyl)amino)pyrimidin-4-yl)pyridin-4-yl)oxy)-3-fluorophenyl) 5-cyano-2-methylbenzenesulfonamide] | 11 to 100
N[C@H]1CC[C@H](Nc2nccc(-c3cnccc3Oc3ccc(NS(=O)(=O)C4CC4)cc3F)n2)CC1 [Compound 36, N-[4-[[3-[2-[(1r,4r)(4-Aminocyclohexyl)amino]pyrimidin-4-yl]-4-pyridyl]oxy]-3-fluorophenyl] cyclopropanesulfonamide] | > 5000
N[C@H]1CC[C@H](Nc2nccc(-c3cnccc3Oc3ccc(NS(=O)(=O)c4ccccc4)cc3F)n2)CC1 [Compound 37, N-[4-[[3-[2-[(1r,4r)(4-Aminocyclohexyl)amino]pyrimidin-4-yl]-4-pyridyl]oxy]-3-fluorophenyl] benzenesulfonamide] | 11 to 100
NC(=O)c1ccc(S(=O)(=O)Nc2ccc(Oc3ccncc3-c3ccnc(N[C@H]4CC[C@H](N)CC4)n3)c(F)c2)cc1 [Compound 38, 4-(N-(4-((3-(2-(((1r,4r)-4-aminocyclohexyl)amino)pyrimidin-4-yl)pyridin-4-yl)oxy)-3-fluorophenyl)sulfamoyl) benzamide] | 100 to 1000
N[C@H]1CC[C@H](Nc2nccc(-c3cnccc3Oc3ccc(NS(=O)(=O)C4CCC4)cc3F)n2)CC1 [Compound 39, N-[4-[[3-[2-[(1r,4r)(4-Aminocyclohexyl)amino]pyrimidin-4-yl]-4-pyridyl]oxy]-3-fluorophenyl]cyclobutanesulfonamide] | 1000 to 5000
CS(=O)(=O)Nc1ccc(Oc2ccncc2-c2ccnc(N[C@H]3CC[C@H](N)CC3)n2)c(F)c1 [Compound 40, N-(4-((3-(2-(((1r,4r)-4-aminocyclohexyl)amino)pyrimidin-4-yl)pyridin-4-yl)oxy)-3-fluorophenyl) methanesulfonamide] | 1000 to 5000
N[C@H]1CC[C@H](Nc2nccc(-c3cnccc3Oc3ccc(NS(=O)(=O)c4ccc5c(c4)OCO5)cc3F)n2)CC1 [Compound 41, N-[4-[[3-[2-[(1r,4r)(4-aminocyclohexyl)amino]pyrimidin-4-yl]-4-pyridyl]oxy]-3-fluorophenyl]1,3-benzodioxol-5-ylsulfonamide] | 100 to 1000
N[C@H]1CC[C@H](Nc2nccc(-c3cnccc3Oc3ccc(NS(=O)(=O)c4cccc5cccnc45)cc3F)n2)CC1 [Compound 42, N-[4-[[3-[2-[(1r,4r)(4-aminocyclohexyl)amino]pyrimidin-4-yl]-4-pyridyl]oxy]-3-fluorophenyl]quinoline-8-sulfonamide] | 100 to 1000
COc1ccc(S(=O)(=O)Nc2ccc(Oc3ccncc3-c3ccnc(N[C@H]4CC[C@H](N)CC4)n3)c(F)c2)c(C)c1C [Compound 43, N-[4-[[3-[2-[(1r,4r)(4-aminocyclohexyl)amino]pyrimidin-4-yl]-4-pyridyl]oxy]-3-fluorophenyl] 4-methoxy-2,3-dimethyl-benzenesulfonamide] | 11 to 100
N[C@H]1CC[C@H](Nc2nccc(-c3cnccc3Oc3ccc(NS(=O)(=O)Cc4ccccc4)cc3F)n2)CC1 [Compound 44, N-[4-[[3-[2-[(1r,4r)(4-Aminocyclohexyl)amino]pyrimidin-4-yl]-4-pyridyl]oxy]-3-fluorophenyl] phenylmethanesulfonamide] | 1000 to 5000
Cc1cc2cc(S(=O)(=O)Nc3ccc(Oc4ccncc4-c4ccnc(N[C@H]5CC[C@H](N)CC5)n4)c(F)c3)ccc2[nH]1 [Compound 45, N-[4-[[3-[2-[(1r,4r)(4-aminocyclohexyl)amino]pyrimidin-4-yl]-4-pyridyl]oxy]-3-fluorophenyl] 2-methyl-1H-indole-5-sulfonamide] | > 5000

Continued, values first:

Kd [nM] | Structure (SMILES)
100 to 1000 | N[C@H]1CC[C@H](Nc2nccc(-c3cnccc3Oc3ccc(NS(=O)(=O)c4ccccc4)c(F)c3)n2)CC1 [Compound 46, N-[4-[[3-[2-[(1r,4r)(4-Aminocyclohexyl)amino]pyrimidin-4-yl]-4-pyridyl]oxy]-2-fluorophenyl] benzenesulfonamide]
≤ 10 | N[C@H]1CC[C@H](Nc2nccc(-c3cnccc3Oc3cc(Cl)c(NS(=O)(=O)c4ccccc4Cl)cc3F)n2)CC1 [Compound 47, N-[4-[[3-[2-[(1r,4r)(4-Aminocyclohexyl)amino]pyrimidin-4-yl]-4-pyridyl]oxy]-2-chloro-5-fluorophenyl] 2-chlorobenzenesulfonamide]
11 to 100 | N[C@H]1CC[C@H](Nc2nccc(-c3cnccc3Oc3cc(Cl)c(NS(=O)(=O)c4ccccc4)cc3F)n2)CC1 [Compound 48, N-[4-[[3-[2-[(1r,4r)(4-Aminocyclohexyl)amino]pyrimidin-4-yl]-4-pyridyl]oxy]-2-chloro-5-fluorophenyl] benzenesulfonamide]
100 to 1000 | N[C@H]1CC[C@H](Nc2nccc(-c3cnccc3Oc3cc(Cl)c(NS(=O)(=O)Cc4ccccc4)cc3F)n2)CC1 [Compound 49, N-[4-[[3-[2-[(1r,4r)(4-Aminocyclohexyl)amino]pyrimidin-4-yl]-4-pyridyl]oxy]-2-chloro-5-fluorophenyl] phenylmethanesulfonamide]
> 5000 | N[C@H]1CC[C@H](Nc2nccc(-c3cnccc3Oc3ccc(NS(=O)(=O)C4CC4)c(Cl)c3)n2)CC1 [Compound 50, N-[4-[[3-[2-[(1r,4r)(4-Aminocyclohexyl)amino]pyrimidin-4-yl]-4-pyridyl]oxy]-2-chlorophenyl] cyclopropanesulfonamide]
1000 to 5000 | N[C@H]1CC[C@H](Nc2nccc(-c3cnccc3Oc3ccc(NS(=O)(=O)Cc4ccccc4)c(Cl)c3)n2)CC1 [Compound 51, N-[4-[[3-[2-[(1r,4r)(4-Aminocyclohexyl)amino]pyrimidin-4-yl]-4-pyridyl]oxy]-2-chlorophenyl] phenylmethanesulfonamide]
11 to 100 | N[C@H]1CC[C@H](Nc2nccc(-c3cnccc3Oc3ccc(NS(=O)(=O)c4ccccc4)c(Cl)c3F)n2)CC1 [Compound 52, N-[4-[[3-[2-[(1r,4r)(4-Aminocyclohexyl)amino]pyrimidin-4-yl]-4-pyridyl]oxy]-2-chloro-3-fluorophenyl] benzenesulfonamide]
≤ 10 | N[C@H]1CC[C@H](Nc2nccc(-c3cnccc3Oc3ccc(NS(=O)(=O)c4ccccc4Br)cc3F)n2)CC1 [Compound 53, N-[4-[[3-[2-[(1r,4r)(4-Aminocyclohexyl)amino]pyrimidin-4-yl]-4-pyridyl]oxy]-3-fluorophenyl] 2-bromobenzenesulfonamide]
11 to 100 | Cc1ccccc1S(=O)(=O)Nc1ccc(Oc2ccncc2-c2ccnc(N[C@H]3CC[C@H](N)CC3)n2)c(F)c1 [Compound 54, N-[4-[[3-[2-[(1r,4r)(4-Aminocyclohexyl)amino]pyrimidin-4-yl]-4-pyridyl]oxy]-3-fluorophenyl] 2-methylbenzenesulfonamide]
100 to 1000 | Cc1cc(C)c(S(=O)(=O)Nc2ccc(Oc3ccncc3-c3ccnc(N[C@H]4CC[C@H](N)CC4)n3)c(F)c2)c(C)c1 [Compound 55, N-[4-[[3-[2-[(1r,4r)(4-Aminocyclohexyl)amino]pyrimidin-4-yl]-4-pyridyl]oxy]-3-fluorophenyl] 2,4,6-trimethylbenzenesulfonamide]
100 to 1000 | N[C@H]1CC[C@H](Nc2nccc(-c3cnccc3Oc3ccc(NS(=O)(=O)c4cccc5nccnc45)cc3F)n2)CC1 [Compound 56, N-[4-[[3-[2-[(1r,4r)(4-Aminocyclohexyl)amino]pyrimidin-4-yl]-4-pyridyl]oxy]-3-fluorophenyl] quinoxalin-5-ylsulfonamide]
100 to 1000 | N[C@H]1CC[C@H](Nc2nccc(-c3cnccc3Oc3ccc(NS(=O)(=O)c4cccc5c4CCCC5)cc3F)n2)CC1 [Compound 57]
11 to 100 | N[C@H]1CC[C@H](Nc2nccc(-c3cnccc3Oc3ccc(NS(=O)(=O)c4cc(Cl)c(Br)cc4F)cc3F)n2)CC1 [Compound 58, N-[4-[[3-[2-[(1r,4r)(4-Aminocyclohexyl)amino]pyrimidin-4-yl]-4-pyridyl]oxy]-3-fluorophenyl] 4-bromo-5-chloro-2-fluorobenzenesulfonamide]
11 to 100 | O=S(=O)(Nc1ccc(Oc2ccncc2-c2ccnc(N[C@H]3CCCNC3)n2)c(F)c1)c1ccccc1 [Compound 59, N-[3-Fluoro-4-[[3-[2-[[(3S)-3-piperidyl]amino]pyrimidin-4-yl]-4-pyridyl]oxy]phenyl] benzenesulfonamide]
1000 to 5000 | N[C@H]1CC[C@H](Nc2nccc(-c3cnccc3Oc3cc(Cl)c(NS(=O)(=O)C4CC4)cc3F)n2)CC1 [Compound 60, N-[4-[[3-[2-[(1r,4r)(4-Aminocyclohexyl)amino]pyrimidin-4-yl]-4-pyridyl]oxy]-2-chloro-5-fluorophenyl] cyclopropylsulfonamide]
